Measured values as given in patent publication US12628750B2, “Plant cell chromosome doubling by application of electromagnetic field” (SYNGENTA CROP PROTECTION AG, priority 2020, dated 2026).
Several values for one entry are separate records, joined by “and”; a condition that tells them apart may be missing. Equal entries are not always repeated.

Assays:
[1] = test system: transgenic tobacco (Nicotiana tabacum) BY-2 cell line; assay: Phragmoplast count by confocal microscopy in synchronized GFP-tubulin BY-2 cells; format: cell-based; conditions: 1.25 mM colchicine; n=3; * p≤0.05 vs No EMF
Description: (§1) The transgenic tobacco (Nicotiana tabacum) BY-2 cell line was obtained from RIKEN BioResource Research Center (epd.brd.riken.jp/en/). This cell line expresses green fluorescent protein (“GFP”) fused to tobacco α-tubulin. See F. Kumagai, et al., Fate of nascent microtubules organized at the M/G1 interface, as visualized by synchronized tobacco BY02 cells stably expressing GFP-tubulin: Time-sequence observations of the reorganization of cortical microtubules in living plant cells, PLANT & CELL PHYS. 42:723-732 (2001). When viewed with a fluorescence microscope, the microtubules fluoresce and enable visualization of microtubule polymerization, including, e.g., spindle fiber and phragmoplast formation during cell division. The BY-GT16 cells were grown in modified LS media supplemented with 0.2 mg/L of 2,4-D. The cells were maintained in the dark at 27° C. on a rotary shaker at 130 rpm, with sub-culturing at 7-day intervals.
To aid visualization and increase the likelihood of observing a plurality of cells undergoing mitosis after S-phase, the BY-GT16 cells were synchronized. […]
After washing the aphidicolin from the cells, the cells were permitted to restart normal cellular processes for six hours (i.e., the cells were “released”). […] The oscilloscope monitored the sinusoidal variation of the EMF applied to the cells in the cuvette as a function of time. […]

[2] = test system: transgenic tobacco (Nicotiana tabacum) BY-2 cell line; assay: Cell viability by trypan blue staining in synchronized BY-2 cells; format: cell-based
Description: as §1
To aid visualization and increase the likelihood of observing a plurality of cells undergoing mitosis after S-phase, the BY-GT16 cells were synchronized. To do so, […] of 7-day old suspension culture was transferred into 14 mL of BY-2 media (recipes below in Example 4). To the new suspension, 14 μL aphidicolin (5 mg/mL) was added, and the suspension was incubated in the dark for 24 hours at 25° C. on a rotary shaker at 130 rpm. After incubation, the aphidicolin was removed by washing ten times with 16 mL of sterile BY-2 medium. At the end of the last wash, the cells were resuspended in 16 mL of fresh BY-2 medium and returned the washed suspension to the incubator. BY-2 cells reach maximum mitotic index after approximately eight hours. Generally, peak numbers of cells with phragmoplasts were observed approximately eleven hours after washing. Thus, the plurality of cells was reasonably synchronized.
After washing the aphidicolin from the cells, the cells were permitted to restart normal cellular processes for six hours (i.e., the cells were “released”). Next, the population of synchronized cells were prepared for placement in an EMF apparatus (FIG. 1). At that point, 775 μL of cell culture was placed into a 4 mm electroporation cuvette, which was held in place in the cavity of the apparatus using a plastic frame. The plastic frame was designed to fit inside a cavity of the apparatus and was created by 3D-printing. The frame was designed to be placed inside the cavity such that the electrodes (210 and 220) from the Amplifier (200) are able to stably contact the rigid surfaces of the metal plates (Terminals 310 and 320) defining the Cavity (300), which in this instance was configured to hold the cuvette (FIG. 1). The Function Generator (100) was connected to the amplifier and was used to control the frequency (kHz) and field intensity (effective V/cm in the cuvette) of the applied EMF. An optional Oscilloscope (400) was also attached to the positive electrode (210) at the point of contact with the metal plate (310) of the Cavity (FIG. 2). The oscilloscope monitored the sinusoidal variation of the EMF applied to the cells in the cuvette as a function of time.
For the time period between Hours 7 and 11 after mitotic release of the cells, the EMF was applied to the cells in the cuvette (for a total duration of four hours). After application, the Function Generator (100) was turned off and the cells were removed for viability staining and phragmoplast observation. The remaining cells were fixed in paraformaldehyde for later observation.
To determine at what frequency or range of frequencies the BY-2 mitotic structures would be susceptible to the effects of the EMF, frequency tests were conducted in pairs with controls. The controls included a “No Treatment” control where no EMF was applied over the course of several sessions (see “Date of Experiment” column). Since EMF is generated via application of an AC voltage, in some tests, the controls included the application of a corresponding DC voltage. […]

BMS cell culture = assay: Nuclear ploidy analysis (Sysmex Ploidy Analyzer) of BMS cell suspension culture after treatment; format: cell-based
Protocol: A BMS cell culture was obtained and maintained in liquid MS media supplemented with 2 mg/L of 2,4-D as described in Green and Phillips (1975). Five to seven days after subculture, the liquid cell culture was placed in a […] gap electroporation cuvette and exposed to EMF application at a frequency of 275 kHz, intensity of 25 V/cm, for a duration of 18 hours with constant shaking at room temperature to disrupt spindle fiber formation and interfere with mitosis. For each treatment, three other tests were also setup from the same culture: (i) 1.25 mM colchicine-treatment, (ii) no treatment culture in an electroporation cuvette, and (iii) no treatment culture that remained in the incubator flask. This duration allows for DNA replication without cell division, thereby causing chromosome doubling.
To measure doubling immediately after treatment, cell culture was prepared for nuclear ploidy analysis first by protoplasting cells for 3 hours in plant protoplast digest/wash buffer (Sigma-Aldrich® D9692) containing 1% cellulase R-10 (GoldBio™ C8001.0001) and 0.1% macerozyme R-10 (GoldBio™ M8002.0001) at 25 C with shaking at 120 rpm. After protoplasting, cells were pelleted by centrifugation at 14000 rpm for 1 min in a tabletop microcentrifuge and protoplast buffer was removed with a pipette. The cells were then resuspended by pipetting in 400 μl of nuclei extraction buffer (Sysmex®, CyStain® UV Precise P Nuclei Extraction Buffer, 05-5002) and mixed with 800 μl of nuclei staining solution (Sysmex®, CyStain® UV Precise P Staining Buffer, 05-5002). The stained nuclei were then passed through a 30 μm filter (Sysmex®, Non-sterile CellTrics® Filter, Green, 04-0042-2316) into the collection cuvette, and the filter rinsed with an additional 800 μl of nuclei staining solution. The cuvette was then loaded into a Sysmex® Ploidy Analyzer (CyFlow® Ploidy Analyzer, equipped with UV LED 365 nm laser) and data obtained for the entirety of the sample. Untreated BMS cell culture typically has 2-3 ploidy peaks, consistent with the majority of cells existing in a stable ploidy state (peak 1), and a minority of cells being in the process of mitosis and containing double the standard ploidy state (peak 2). […] The increase in the proportion of cells represented in the higher level peaks (3 and 4) was associated with a decrease in cells in the lower level peaks (1 and 2), providing direct evidence that field treatment doubled the genomes of cells moving them from peaks 1 and 2 into the category of peaks 3 and 4 (Table 4). To determine whether this change in the relative proportions of cell culture ploidy levels was statistically significant, eight experimental replicates were averaged and the values compared with pairwise T-tests (Table 5 and Table 6).

[3] = test system: haploid, diploid and interspecific hybrid embryos and seedlings; conditions: cited from earlier work
[4] = 1.25 mM colchicine, trypan blue
[5] = 1.25 mM colchicine, 18 hours, single replicates

Compound: COc1cc2c(c(OC)c1OC)-c1ccc(OC)c(=O)cc1[C@@H](NC(C)=O)CC2 [Colchicine, colchicine]
- Average Phragmoplasts (Normalized) [1]: 1.0*
- Loss of viability compared to EMF treated cells ([2]; 1.25 mM colchicine vs 250 and 275 kHz EMF): higher loss of viability
- Average Viability (Normalized) ([2]; 1.25 mM colchicine, n=3): 101%
- Viability (Normalized to Control) ([2]; 1.25 mM colchicine, normalized to no treatment control): 112.4% and 94.1% and 95.4%
- Dead Cells (Per 3 vertical columns) [2, 4]: 87 and 112 and 120
- Live Cells (Per 3 vertical columns) [2, 4]: 732 and 740 and 766
- Viability (% Live) [2, 4]: 89.4% and 86.9% and 86.5%
- Proportion of Cells in Each Ploidy Peak (%): Peak 1 (BMS cell culture; [5]): 38.88% and 11.65% and 11.29% and 27.74% and 26.54% and 19.87% and 35.15% and 33.87%
- Proportion of Cells in Each Ploidy Peak (%): Peak 2 (BMS cell culture; [5]): 57.77% and 59.12% and 74.64% and 57.21% and 57.50% and 58.10% and 54.88% and 53.99%
- Proportion of Cells in Each Ploidy Peak (%): Peak 3 (BMS cell culture; [5]): 3.35% and 26.77% and 13.43% and 13.56% and 15.34% and 20.30% and 8.73% and 11.35%
- Proportion of Cells in Each Ploidy Peak (%): Peak 4 (BMS cell culture; [5]): 0.00% and 2.46% and 0.64% and 1.49% and 0.62% and 1.72% and 1.23% and 0.79%
- Avg Peak1% (BMS cell culture; average of 8 replicates): 25.62%
- Avg Peak2% (BMS cell culture; average of 8 replicates): 59.15%
- Avg Peak3% (BMS cell culture; average of 8 replicates): 14.10%
- Avg Peak4% (BMS cell culture; average of 8 replicates): 1.12%
- Cells of higher genome content compared to untreated controls (flask or cuvette) (BMS cell culture; pairwise T-tests, 8 replicates): significantly more cells of higher genome content
- survival rate after chromosome doubling with colchicine [3]: less than 100%
- fertility after chromosome doubling with colchicine ([3]; usually): less than 50%
